In US20260262643A1, “HERBICIDAL BENZOXAZINES” (FMC CORPORATION, priority 2022, published 2026):

How the values were obtained:
blackgrass [1] = assay: Test C postemergence; assay type: in vivo, Alopecurus myosuroides; conditions: 10 days
Outline: (§1)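 Visual injury ratings on a 0–100 scale (100 = complete control) were made against untreated controls 10 days after treatment in the greenhouse. Compounds, formulated with surfactant in non-phytotoxic solvent, were sprayed on soil preemergence or onto one- to two-leaf plants 2–10 cm tall postemergence.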

blackgrass [2] = assay: Test C preemergence; assay type: in vivo, Alopecurus myosuroides; conditions: 0 to 100 scale (0 no effect, 100 complete control); for Plant response rating, Blackgrass: Preemergence, 500 g ai/ha, visual rating after 10 days; for Blackgrass plant response rating: Test C, preemergence, 125 g ai/ha
Outline: as §1

wheat [3] = assay: Test C postemergence; assay type: in vivo, Triticum aestivum; conditions: 10 days
Outline: as §1

pigweed, palmer [4] = assay: Test C preemergence; assay type: in vivo, Amaranthus palmeri; conditions: 0 to 100 scale (0 no effect, 100 complete control); for Plant response rating, Pigweed, Palmer: Preemergence, 500 g ai/ha, visual rating after 10 days; for Pigweed, Palmer plant response rating: Test C, preemergence, 125 g ai/ha
Outline: as §1

corn [5] = assay: Test C postemergence; assay type: in vivo, Zea mays; conditions: 10 days
Outline: as §1

soybean [6] = assay: Test C postemergence; assay type: in vivo, Glycine max; conditions: 10 days
Outline: as §1

horseweed = assay: Test C postemergence; assay type: in vivo, Erigeron canadensis; conditions: 10 days
Outline: as §1

ryegrass, Italian [7] = assay: Test C postemergence; assay type: in vivo, Lolium multiflorum; conditions: 10 days
Outline: as §1

barnyardgrass [8] = assay: Test C postemergence; assay type: in vivo, Echinochloa crusgalli; conditions: 10 days
Outline: as §1

rice = assay: Test D flooded paddy test; assay type: in vivo, Oryza sativa; conditions: 250 g ai/ha, applied to paddy water, visual rating after 13 to 14 days, scale 0 to 100 (0 no effect, 100 complete control)
Procedure: (§2) Plant species in the flooded paddy test selected from barnyardgrass (Echinochloa crus-galli), ducksalad (Heteranthera limosa), rice (Oryza sativa), and sedge, umbrella (small-flower umbrella sedge, Cyperus difformis) were grown to the 2-leaf stage for testing. At time of treatment, test pots were flooded to 3 cm above the soil surface, treated by application of test compounds directly to the paddy water, and then maintained at that water depth for the duration of the test. Treated plants and controls were maintained in a greenhouse for 13 to 14 days, after which time all species were compared to controls and visually evaluated. Plant response ratings, summarized in Table D, are based on a scale of 0 to 100 where 0 is no effect and 100 is complete control. A dash (-) response means no test result.

oat, wild [9] = assay: Test C preemergence; assay type: in vivo, Avena fatua; conditions: 0 to 100 scale (0 no effect, 100 complete control); for Plant response rating, Oat, Wild: Preemergence, 500 g ai/ha, visual rating after 10 days; for Oat, Wild plant response rating: Test C, preemergence, 125 g ai/ha
Outline: as §1

ducksalad = assay: Test D flooded paddy test; assay type: in vivo, Heteranthera limosa; conditions: 250 g ai/ha, applied to paddy water, visual rating after 13 to 14 days, scale 0 to 100 (0 no effect, 100 complete control)
Procedure: as §2

kochia [10] = assay: Test C preemergence; assay type: in vivo, Bassia scoparia; conditions: 0 to 100 scale (0 no effect, 100 complete control); for Plant response rating, Kochia: Preemergence, 500 g ai/ha, visual rating after 10 days; for Kochia plant response rating: Test C, preemergence, 125 g ai/ha
Outline: as §1

kochia [11] = assay: Test C postemergence; assay type: in vivo, Bassia scoparia; conditions: 10 days
Outline: as §1

sedge, umbrella = assay: Test D flooded paddy test; assay type: in vivo, Cyperus difformis; conditions: 250 g ai/ha, applied to paddy water, visual rating after 13 to 14 days, scale 0 to 100 (0 no effect, 100 complete control)
Procedure: as §2

ragweed [12] = assay: Test C preemergence; assay type: in vivo, Ambrosia artemisiifolia; conditions: 0 to 100 scale (0 no effect, 100 complete control); for Plant response rating, Ragweed: Preemergence, 500 g ai/ha, visual rating after 10 days; for Ragweed plant response rating: Test C, preemergence, 125 g ai/ha
Outline: as §1

green foxtail = assay: Test C preemergence; assay type: in vivo, Setaria viridis; conditions: 0 to 100 scale (0 no effect, 100 complete control); for Plant response rating, Foxtail, Green: Preemergence, 500 g ai/ha, visual rating after 10 days; for Foxtail, Green plant response rating: Test C, preemergence, 125 g ai/ha
Outline: as §1

ragweed [13] = assay: Test C postemergence; assay type: in vivo, Ambrosia artemisiifolia; conditions: 10 days
Outline: as §1

barnyardgrass [14] = assay: Test D flooded paddy test; assay type: in vivo, Echinochloa crus-galli; conditions: 250 g ai/ha, applied to paddy water, visual rating after 13 to 14 days, scale 0 to 100 (0 no effect, 100 complete control)
Procedure: as §2

ryegrass, Italian [15] = assay: Test C preemergence; assay type: in vivo, Lolium multiflorum; conditions: 0 to 100 scale (0 no effect, 100 complete control); for Plant response rating, Ryegrass, Italian: Preemergence, 500 g ai/ha, visual rating after 10 days; for Ryegrass, Italian plant response rating: Test C, preemergence, 125 g ai/ha
Outline: as §1

pigweed, palmer [16] = assay: Test C postemergence; assay type: in vivo, Amaranthus palmeri; conditions: 10 days
Outline: as §1

galium = assay: Test C postemergence; assay type: in vivo, Galium aparine; conditions: 10 days
Outline: as §1

oat, wild [17] = assay: Test C postemergence; assay type: in vivo, Avena fatua; conditions: 10 days
Outline: as §1

corn [18] = assay: Test C preemergence; assay type: in vivo, Zea mays; conditions: 0 to 100 scale (0 no effect, 100 complete control); for Plant response rating, Corn: Preemergence, 500 g ai/ha, visual rating after 10 days; for Corn plant response rating: Test C, preemergence, 125 g ai/ha
Outline: as §1

barnyardgrass [19] = assay: Test C preemergence; assay type: in vivo, Echinochloa crusgalli; conditions: 0 to 100 scale (0 no effect, 100 complete control); for Plant response rating, Barnyardgrass: Preemergence, 500 g ai/ha, visual rating after 10 days; for Barnyardgrass plant response rating: Test C, preemergence, 125 g ai/ha
Outline: as §1

soybean [20] = assay: Test C preemergence; assay type: in vivo, Glycine max; conditions: 0 to 100 scale (0 no effect, 100 complete control); for Plant response rating, Soybean: Preemergence, 500 g ai/ha, visual rating after 10 days; for Soybean plant response rating: Test C, preemergence, 125 g ai/ha
Outline: as §1

wheat [21] = assay: Test C preemergence; assay type: in vivo, Triticum aestivum; conditions: 0 to 100 scale (0 no effect, 100 complete control); for Plant response rating, Wheat: Preemergence, 500 g ai/ha, visual rating after 10 days; for Wheat plant response rating: Test C, preemergence, 125 g ai/ha
Outline: as §1

[22] = 125 g ai/ha, postemergence, 0 to 100 scale, 0 no effect, 100 complete control
[23] = Postemergence, 500 g ai/ha, visual 0 to 100 scale (0 no effect, 100 complete control)

For COC[C@H]1CN(C(=O)c2cc(-n3cnc(C4CCC4)n3)ccc2OC)c2cccc(Cl)c2O1 [Compound 236], the “Plant response rating, Blackgrass” value (blackgrass [1]; [22]) was 20, the “Plant response rating, Blackgrass” value (blackgrass [1]; [23]) was 90 and the “Plant response rating, Blackgrass” value (blackgrass [2]) was 10. The “Blackgrass plant response rating” value (blackgrass [2]) was 0, the “Plant response rating, Wheat” value (wheat [3]; [22]) was 20 and the “Plant response rating, Wheat” value (wheat [3]; [23]) was 30. The “Plant response rating, Pigweed, Palmer” value (pigweed, palmer [4]) was 100, the “Pigweed, Palmer plant response rating” value (pigweed, palmer [4]) was 80 and the “Plant response rating, Corn” value (corn [5]; [22]) was 30. The “Plant response rating, Corn” value (corn [5]; [23]) was 80, the “Plant response rating, Soybean” value (soybean [6]; [22]) was 100 and the “Plant response rating, Soybean” value (soybean [6]; [23]) was 100. For the same molecule, the “Plant response rating, Horseweed” value (horseweed; [22]) was 70, the “Plant response rating, Horseweed” value (horseweed; [23]) was 70 and the “Plant response rating, Ryegrass, Italian” value (ryegrass, Italian [7]; [22]) was 60. For the same molecule, the “Plant response rating, Ryegrass, Italian” value (ryegrass, Italian [7]; [23]) was 90, the “Plant response rating, Barnyardgrass” value (barnyardgrass [8]; [22]) was 40 and the “Plant response rating, Barnyardgrass” value (barnyardgrass [8]; [23]) was 90. The “Plant response rating, Rice (Flood)” value (rice) was 0, the “Plant response rating, Oat, Wild” value (oat, wild [9]) was 30 and the “Oat, Wild plant response rating” value (oat, wild [9]) was 10. The “Plant response rating, Ducksalad (Flood)” value (ducksalad) was 75, the “Plant response rating, Kochia” value (kochia [10]) was 90 and the “Kochia plant response rating” value (kochia [10]) was 40. The “Plant response rating, Kochia” value (kochia [11]; [22]) was 90, the “Plant response rating, Kochia” value (kochia [11]; [23]) was 90 and the “Plant response rating, Sedge, Umbrella (Flood)” value (sedge, umbrella) was 95. For the same molecule, the “Plant response rating, Ragweed” value (ragweed [12]) was 80, the “Ragweed plant response rating” value (ragweed [12]) was 20 and the “Plant response rating, Foxtail, Green” value (green foxtail) was 100. For the same molecule, the “Foxtail, Green plant response rating” value (green foxtail) was 90, the “Plant response rating, Ragweed” value (ragweed [13]; [22]) was 80 and the “Plant response rating, Ragweed” value (ragweed [13]; [23]) was 90. The “Plant response rating, Barnyardgrass (Flood)” value (barnyardgrass [14]) was 0, the “Plant response rating, Ryegrass, Italian” value (ryegrass, Italian [15]) was 50 and the “Ryegrass, Italian plant response rating” value (ryegrass, Italian [15]) was 50. The “Plant response rating, Pigweed, Palmer” value (pigweed, palmer [16]; [22]) was 90, the “Plant response rating, Pigweed, Palmer” value (pigweed, palmer [16]; [23]) was 90 and the “Plant response rating, Galium” value (galium; [22]) was 100. For the same molecule, the “Plant response rating, Galium” value (galium; [23]) was 100, the “Plant response rating, Oat, Wild” value (oat, wild [17]; [22]) was 10 and the “Plant response rating, Oat, Wild” value (oat, wild [17]; [23]) was 40. For the same molecule, the “Plant response rating, Corn” value (corn [18]) was 0, the “Corn plant response rating” value (corn [18]) was 0 and the “Plant response rating, Barnyardgrass” value (barnyardgrass [19]) was 80. For the same molecule, the “Barnyardgrass plant response rating” value (barnyardgrass [19]) was 20, the “Plant response rating, Soybean” value (soybean [20]) was 70 and the “Soybean plant response rating” value (soybean [20]) was 40. For the same molecule, the “Plant response rating, Wheat” value (wheat [21]) was 10 and the “Wheat plant response rating” value (wheat [21]) was 0.

With COC[C@H]1CN(C(=O)c2cc(-n3cnc(C4CC4)n3)ccc2OC)c2cccc(Cl)c2O1 [Compound 235] the “Plant response rating, Blackgrass” value (blackgrass [1]; [22]) was 70, the “Plant response rating, Blackgrass” value (blackgrass [1]; [23]) was 90 and the “Plant response rating, Blackgrass” value (blackgrass [2]) was 80. For the same molecule, the “Blackgrass plant response rating” value (blackgrass [2]) was 50, the “Plant response rating, Wheat” value (wheat [3]; [22]) was 30 and the “Plant response rating, Wheat” value (wheat [3]; [23]) was 30. The “Plant response rating, Pigweed, Palmer” value (pigweed, palmer [4]) was 100, the “Pigweed, Palmer plant response rating” value (pigweed, palmer [4]) was 90 and the “Plant response rating, Corn” value (corn [5]; [22]) was 50. For the same molecule, the “Plant response rating, Corn” value (corn [5]; [23]) was 90, the “Plant response rating, Soybean” value (soybean [6]; [22]) was 100 and the “Plant response rating, Soybean” value (soybean [6]; [23]) was 100. For the same molecule, the “Plant response rating, Horseweed” value (horseweed; [22]) was 30, the “Plant response rating, Horseweed” value (horseweed; [23]) was 70 and the “Plant response rating, Ryegrass, Italian” value (ryegrass, Italian [7]; [22]) was 70. For the same molecule, the “Plant response rating, Ryegrass, Italian” value (ryegrass, Italian [7]; [23]) was 100, the “Plant response rating, Barnyardgrass” value (barnyardgrass [8]; [22]) was 90 and the “Plant response rating, Barnyardgrass” value (barnyardgrass [8]; [23]) was 90. The “Plant response rating, Rice (Flood)” value (rice) was 15, the “Plant response rating, Oat, Wild” value (oat, wild [9]) was 80 and the “Oat, Wild plant response rating” value (oat, wild [9]) was 20. The “Plant response rating, Ducksalad (Flood)” value (ducksalad) was 90, the “Plant response rating, Kochia” value (kochia [10]) was 90 and the “Kochia plant response rating” value (kochia [10]) was 80. For the same molecule, the “Plant response rating, Kochia” value (kochia [11]; [22]) was 90, the “Plant response rating, Kochia” value (kochia [11]; [23]) was 90 and the “Plant response rating, Sedge, Umbrella (Flood)” value (sedge, umbrella) was 90. For the same molecule, the “Plant response rating, Ragweed” value (ragweed [12]) was 60, the “Ragweed plant response rating” value (ragweed [12]) was 30 and the “Plant response rating, Foxtail, Green” value (green foxtail) was 100. The “Foxtail, Green plant response rating” value (green foxtail) was 100, the “Plant response rating, Ragweed” value (ragweed [13]; [22]) was 70 and the “Plant response rating, Ragweed” value (ragweed [13]; [23]) was 80. The “Plant response rating, Barnyardgrass (Flood)” value (barnyardgrass [14]) was 10, the “Plant response rating, Ryegrass, Italian” value (ryegrass, Italian [15]) was 90 and the “Ryegrass, Italian plant response rating” value (ryegrass, Italian [15]) was 80. The “Plant response rating, Pigweed, Palmer” value (pigweed, palmer [16]; [22]) was 70, the “Plant response rating, Pigweed, Palmer” value (pigweed, palmer [16]; [23]) was 90 and the “Plant response rating, Galium” value (galium; [22]) was 100. For the same molecule, the “Plant response rating, Galium” value (galium; [23]) was 100, the “Plant response rating, Oat, Wild” value (oat, wild [17]; [22]) was 40 and the “Plant response rating, Oat, Wild” value (oat, wild [17]; [23]) was 60. For the same molecule, the “Plant response rating, Corn” value (corn [18]) was 0, the “Corn plant response rating” value (corn [18]) was 20 and the “Plant response rating, Barnyardgrass” value (barnyardgrass [19]) was 90. The “Barnyardgrass plant response rating” value (barnyardgrass [19]) was 50, the “Plant response rating, Soybean” value (soybean [20]) was 70 and the “Soybean plant response rating” value (soybean [20]) was 60. For the same molecule, the “Plant response rating, Wheat” value (wheat [21]) was 30 and the “Wheat plant response rating” value (wheat [21]) was 30.
